≈ marks a conversion by molar mass, not a printed value. Where “and” joins values, the source holds several entries; their conditions need not be identical. Equal entries are not always repeated. Where two headings read alike, the source gives them in different places. One block for each compound: values may come before it. Bridge positions count the residues as written; N and C are the ends. Square brackets hold non-standard residues; d marks the D form. Ends that are not written are not given here. Peptide text beside a SMILES is read from it. * marks the point of attachment. X1 = CC[C@H](C)CCCCC(=O)*; Dab = NCC[C@H](N)C(=O)O
Tests used:
[1] = tested on: Klebsiella pneumoniae (n = 101); format: cell-based; conditions: Klebsiella pneumoniae (n = 101); for % R (isolates resistant): CLSI breakpoints, colistin EUCAST
Procedure: (§1) The clinical isolates were obtained from USA hospitals. […] Plates were incubated at 35° C. overnight.

[2] = tested on: Acinetobacter spp. (n = 104); format: cell-based; conditions: Acinetobacter spp. (n = 104); for % R (isolates resistant): CLSI breakpoints
Procedure: as §1

[3] = tested on: Escherichia coli (n = 101); format: cell-based; conditions: Escherichia coli (n = 101); for % R (isolates resistant): CLSI breakpoints, colistin EUCAST
Procedure: as §1

[4] = tested on: Pseudomonas aeruginosa (n = 109); format: cell-based; conditions: Pseudomonas aeruginosa (n = 109); for % R (isolates resistant): CLSI breakpoints
Procedure: as §1

[5] = tested on: Enterococcus faecalis ATCC 29212 (VSE; QC); format: cell-based; conditions: Enterococcus faecalis ATCC 29212 (VSE; QC)
Procedure: (§2) Each peptide was formulated in PBS buffer prior to testing. Peptides of SEQ ID NO:5 and SEQ ID NO:8 were brought up in 100% DMSO with 0.002% polysorbate-80 at 1.28 mg/mL (40× the highest final test concentration of 32 mcg/mL). Final test concentration of DMSO was 2.5% in the assay at the first dilution for those two compounds.
(§3) Mueller Hinton II broth (MHB II; BD; Lot Nos. 6258541 and 7143896) was used for MIC testing of aerobic organisms. 0.002% polysorbate 80 (P80) was added to the test medium.
(§4) MIC values were determined using a broth microdilution procedure described by CLSI (1, 3). Automated liquid handlers (Multidrop 384, Labsystems, Helsinki, Finland; Biomek 2000 and Biomek FX, Beckman Coulter, Fullerton Calif.) were used to conduct serial dilutions and liquid transfers.
(§5) To prepare the drug mother plates, which would provide the serial peptide dilutions for the replicate daughter plates, the wells of columns 2-12 of standard 96-well microdilution plates (Costar 3795) were filled with 150 µl of the designated diluent for each row of peptide.
(§6) The test articles and comparator compounds ([…] at 40× the highest concentration to be tested) were dispensed into the appropriate wells in column 1. The Biomek 2000 was then used to make 2-fold serial dilutions in the mother plates from column 1 through column 11. The wells of Column 12 contained no drug and served as the organism growth control wells for the assay.
(§7) The daughter plates were loaded with 185 μL per well of MHB II using the Multidrop 384. The daughter plates were completed on the Biomek FX instrument which transferred 5 uL of peptide solution from each well of a mother plate to the corresponding well of each daughter plate in a single step. A standardized inoculum of each test organism was prepared per CLSI methods. The inoculum for each organism was dispensed into sterile reservoirs divided by length (Beckman Coulter), and the Biomek 2000 was used to inoculate the plates. Daughter plates were placed on the Biomek 2000 work surface in reverse orientation so that inoculation took place from low to high drug concentration.
(§8) Plates were stacked 3-4 high, covered with a lid on the top plate, placed in plastic bags, and incubated at 35° C. for 16 to 20 hrs. Following incubation, the microplates were removed from the incubator and viewed from the bottom using a plate viewer. […] The MIC was read and recorded as the lowest concentration of peptide that inhibited visible growth of the organism.

[6] = tested on: Escherichia coli ATCC BAA-2471 (NDM-1); format: cell-based; conditions: Escherichia coli ATCC BAA-2471 (NDM-1)
Procedure: as §2, §3, §4, §5, §6, §7, §8

[7] = tested on: Enterococcus faecalis ATCC 700802 (V583 VRE); format: cell-based; conditions: Enterococcus faecalis ATCC 700802 (V583 VRE)
Procedure: as §2, §3, §4, §5, §6, §7, §8

[8] = tested on: Klebsiella pneumoniae ATCC BAA-1705 (KPC); format: cell-based; conditions: Klebsiella pneumoniae ATCC BAA-1705 (KPC)
Procedure: as §2, §3, §4, §5, §6, §7, §8

[9] = tested on: Streptococcus agalactiae ATCC 13813; format: cell-based
Procedure: as §2, §3, §4, §5, §6, §7, §8

[10] = tested on: Pseudomonas aeruginosa ATCC BAA-2109 (MDR); format: cell-based; conditions: Pseudomonas aeruginosa ATCC BAA-2109 (MDR)
Procedure: as §2, §3, §4, §5, §6, §7, §8

[11] = tested on: Pseudomonas aeruginosa ATCC 27853 (non-MDR; QC); format: cell-based; conditions: Pseudomonas aeruginosa ATCC 27853 (non-MDR; QC)
Procedure: as §2, §3, §4, §5, §6, §7, §8

[12] = tested on: Streptococcus pyogenes ATCC 49399; format: cell-based; conditions: Streptococcus pyogenes ATCC 49399
Procedure: as §2, §3, §4, §5, §6, §7, §8

[13] = tested on: Staphylococcus aureus ATCC 43300 (MRSA); format: cell-based; conditions: Staphylococcus aureus ATCC 43300 (MRSA)
Procedure: as §2, §3, §4, §5, §6, §7, §8

[14] = tested on: Escherichia coli ATCC 35218 (ESBL); format: cell-based; conditions: Escherichia coli ATCC 35218 (ESBL)
Procedure: as §2, §3, §4, §5, §6, §7, §8

[15] = tested on: Escherichia coli ATCC 25922 (QC); format: cell-based; conditions: Escherichia coli ATCC 25922 (QC)
Procedure: as §2, §3, §4, §5, §6, §7, §8

[16] = tested on: Enterococcus faecium ATCC 51559 (VRE); format: cell-based; conditions: Enterococcus faecium ATCC 51559 (VRE)
Procedure: as §2, §3, §4, §5, §6, §7, §8

[17] = tested on: Streptococcus pneumoniae ATCC 49619 (QC); format: cell-based; conditions: Streptococcus pneumoniae ATCC 49619 (QC)
Procedure: as §2, §3, §4, §5, §6, §7, §8

[18] = tested on: Staphylococcus aureus NRS382 (USA100; HA-MRSA); format: cell-based; conditions: Staphylococcus aureus NRS382 (USA100; HA-MRSA)
Procedure: as §2, §3, §4, §5, §6, §7, §8

[19] = tested on: Acinetobacter baumannii ATCC 19606 (non-MDR); format: cell-based; conditions: Acinetobacter baumannii ATCC 19606 (non-MDR)
Procedure: as §2, §3, §4, §5, §6, §7, §8

[20] = tested on: Staphylococcus aureus ATCC 29213 (MSSA; QC); format: cell-based; conditions: Staphylococcus aureus ATCC 29213 (MSSA; QC)
Procedure: as §2, §3, §4, §5, §6, §7, §8

[21] = tested on: Enterobacter spp. (n = 102); format: cell-based, Enterobacter aerogenes and E. cloacae; conditions: Enterobacter spp. (n = 102); for % R (isolates resistant): CLSI breakpoints, colistin EUCAST
Procedure: as §1

[22] = tested on: Pseudomonas aeruginosa ATCC 27853 (non-MDR; QC); conditions: cited from earlier work
[23] = tested on: Acinetobacter baumannii ATCC BAA-1797 (MDR); assay: microbe, parasite or virus in culture; format: cell-based; conditions: Acinetobacter baumannii ATCC BAA-1797 (MDR)
Procedure: as §2, §3, §4, §5, §6, §7, §8

[24] = tested on: P. aeruginosa strains (PAO1 and 2 clinical isolates); format: cell-based; conditions: three P. aeruginosa strains, 0.5×MIC exposure
Source text: Each antibiotic was compared for their propensity to select for bacterial resistance phenotypes in vitro.

[25] = tested on: Escherichia coli ATCC 25922 (QC); conditions: cited from earlier work
S. aureus = assay: Periprosthetic joint infection mouse model, implant biofilm CFU burden; format: in vivo; conditions: intraperitoneal delivery, versus untreated control mice
Procedure: Periprosthetic joint infection was modeled in a mouse by placing an intra-articular K-wire through the medullary canal of the proximal femur followed by intra-articular inoculation with S. aureus. Animals were treated systemically with an intraperitoneal delivery of cefazolin, rifampin, or the exemplary peptide of SEQ ID NO:1. Intraperitoneal delivery was chosen due to technical difficulties associated with intravenous delivery. Implant sonication and proximal femur homogenate were used to quantify viable bacteria.

[26] = tested on: S. aureus strain SH1000 biofilms; assay: In vitro biofilm disruption on stainless steel rods; format: cell-based; conditions: S. aureus SH1000, 10×MIC, up to 24 hours
Source text: FIG. 15 depicts the effect of administration of SEQ ID NO:1 and cefazolin on biofilm maintenance. […] SEQ ID NO:1 eliminated mature implant biofilms on a model strain of S. aureus, SH1000.

[27] = macaques, 1.0 mg/kg, 30 min IV infusion, one line per individual monkey (4000, 4001, 4002)
Procedure: Animals will be obtained from the Test Facility's colony of adult male cynomolgous monkeys (Macaca fascicularis) of Chinese origin. Animals will be weighed prior to dosing.
Intravenous administration will be via 30 minute infusion into a temporary percutaneous catheter placed into a saphenous vein. Prior to and following dose administration, the catheter will be flushed with 0.5 mL saline prior to removal. All dosing syringes will be weighed prior to and following dosing.
Serial blood samples will be collected via femoral vein (cephalic or saphenous, as necessary). Approximately 1 mL blood samples will be collected into K2EDTA tubes.
Blood samples will be collected into K2EDTA tubes and stored on wet ice. Whole blood will be processed to plasma by centrifugation (2400-2700 rpm at 5° C.) within 30 minutes of collection. Plasma samples will be split into 2 equal aliquots and stored at −80° C. until analysis.
The peptide will be purified from plasma samples from each macaque using a cation exchange-based solid-phase extraction process. Prior to extraction, a known concentration of a mass-adjusted internal standard (IS) will be added to assess recovery and allow for quantitation. Purified samples will be further subjected to high-performance liquid chromatography (HPLC) using C18 300 or 130 angstrom columns prior to MS/MS analysis. Multiple charge states will be observed by MS, so MS/MS will be employed to enable multiple reaction monitoring (MRM) analyses to determine the most MRM transitions with the highest signal-to-noise gain. Compound plasma concentrations will be determined by comparing to and compensating with co-purified IS peak intensity and validated calibrated standard curves.
Toxicokinetic parameters will be calculated using non-compartmental methods as implemented in the Phoenix® WinNonlin® ver. 6.3 comprehensive TK/PK analysis software program (Pharsight Corporation; Mountain View, Calif.) using an IV infusion model. […] Values below the lower limit of quantitation (BLQ) will be assigned a value of zero for the toxicokinetic calculations. […]

[28] = tested on: Enterococcus faecalis ATCC 29212 (VSE; QC); conditions: cited from earlier work
[29] = tested on: Staphylococcus aureus ATCC 29213 (MSSA; QC); conditions: cited from earlier work
[30] = tested on: Streptococcus pneumoniae ATCC 49619 (QC); conditions: cited from earlier work

Compound: CC[C@H](C)CCCCC(=O)N[C@@H](CCN)C(=O)N[C@H](C(=O)N[C@@H](CCN)C(=O)N[C@H]1CCNC(=O)[C@H]([C@@H](C)O)NC(=O)[C@H](CCN)NC(=O)[C@H](CCN)NC(=O)[C@H](CC(C)C)NC(=O)[C@@H](CC(C)C)NC(=O)[C@H](CCN)NC1=O)[C@@H](C)O [Colistin, reference compound] (X1-[Dab]T[Dab][Dab][Dab][dL]L[Dab][Dab]T; lactam 4-C)
MIC50 [1]: 0.12 µg/mL (≈ 0.103 µM) | MIC90 [1]: 32 µg/mL (≈ 27.4 µM) | Mode (MIC) [1]: 0.12 µg/mL | % R (isolates resistant) [1]: 27.7% | MIC50 [2]: 0.25 µg/mL (≈ 0.214 µM) | MIC90 [2]: >32 µg/mL | Mode (MIC) [2]: 0.25 µg/mL | % R (isolates resistant) [2]: 20.2% | MIC50 [3]: 0.12 µg/mL (≈ 0.103 µM) | MIC90 [3]: 0.12 µg/mL (≈ 0.103 µM) | MIC range [3]: ≤0.03 to 0.5 µg/mL | Mode (MIC) [3]: 0.12 µg/mL | % R (isolates resistant) [3]: 0% | MIC50 [4]: 0.5 µg/mL (≈ 0.428 µM) | MIC90 [4]: 1 µg/mL (≈ 0.855 µM) | Mode (MIC) [4]: 0.5 µg/mL | % R (isolates resistant) [4]: 7.3% | MIC [5]: >32 µg/mL | MIC [6]: 0.06 µg/mL (≈ 0.0513 µM) | MIC [7]: >32 µg/mL | MIC [8]: 0.12 µg/mL (≈ 0.103 µM) | MIC [9]: >32 µg/mL | MIC [10]: 0.12 µg/mL (≈ 0.103 µM) | MIC [11]: 0.25 µg/mL (≈ 0.214 µM) | MIC [12]: >32 µg/mL | MIC [13]: >32 µg/mL | MIC [14]: 0.12 µg/mL (≈ 0.103 µM) | MIC [15]: 0.12 µg/mL (≈ 0.103 µM) | MIC [16]: >32 µg/mL | MIC [17]: >32 µg/mL | MIC [18]: >32 µg/mL | MIC [19]: 0.25 µg/mL (≈ 0.214 µM) | MIC [20]: >32 µg/mL | MIC50 [21]: 0.12 µg/mL (≈ 0.103 µM) | MIC90 [21]: 0.25 µg/mL (≈ 0.214 µM) | Mode (MIC) [21]: 0.12 µg/mL | % R (isolates resistant) [21]: 5.8% | MIC range in parentheses below the MIC (QC range) [22]: (0.5-4) μg/mL | MIC [23]: 0.5 µg/mL (≈ 0.428 µM) | Time to development of resistance (fold MIC>10) [24]: 13 days | MIC range in parentheses below the MIC (QC range) [25]: (0.25-2) μg/mL

Compound: Cc1nnc(SCC2=C(C(=O)O)N3C(=O)[C@@H](NC(=O)Cn4cnnn4)[C@H]3SC2)s1 [Cefazolin, cefazolin]
Reduction of implant biofilm CFU burden (sonicate culture) (S. aureus): one log reduction in viable bacteria as compared to untreated controls, but this reduction was not statistically significant | Reduction of mature biofilm on stainless steel rods [26]: did not achieve a three-log reduction

Compound: KKTHTKTKKTHTKTKKTHTK [SEQ ID NO: 13]
Dose Normalized Cmax [27]: 5000 and 7000 and 6000

MIC ([23]; ATCCBAA1797, read-out: MIC): > 4 µg/mL
Compound: C[C@@H](O)[C@H]1C(=O)N2C(C(=O)O)=C(S[C@@H]3CN[C@H](C(=O)N(C)C)C3)[C@H](C)[C@H]12 [Meropenem]
% R (isolates resistant) [1]: 50.5% | % R (isolates resistant) [2]: 65.4% | % R (isolates resistant) [3]: 1% | % R (isolates resistant) [4]: 20.2% | % R (isolates resistant) ([4]; listed as meropenem): 20% | % R (isolates resistant) [21]: 3.9% | MIC range in parentheses below the MIC (QC range) [28]: (2-8) μg/mL | MIC range in parentheses below the MIC (QC range) [29]: (0.03-0.12) μg/mL | MIC range in parentheses below the MIC (QC range) [30]: (0.03-0.25) μg/mL | MIC range in parentheses below the MIC (QC range) [22]: (0.12-1) μg/mL | MIC range in parentheses below the MIC (QC range) [25]: (0.008-0.06) μg/mL
